Like-named read-outs stand apart in the source and are kept apart here.
Experiments:
Sarcoma 180 cells [1] = test: Antitumor action, Sarcoma 180 intraperitoneal in ICR mice, life-span and survivors on 40th day (Test Example 1); format: in vivo; settings: 0.33 mg/mouse i.p. three times; for Life-span prolongation ratio (T/C, %): only related to mice found dead
Method: Antitumor action of the compounds in Working Examples
(§1) ICR mice (a group consisting of five mice) were inoculated intraperitoneally with 1×10^5 Sarcoma 180 cells per mouse, and then given intraperitoneally 0.33 mg/mouse of a compound dissolved in physiological saline, three times, i.e. 1 hour, 1 day and 2 days after inoculation. Reference compound IV, Va or Vb was given to mice under the same conditions. Shown in Table 1 are the life-span prolongation ratio against the untreated control group and the number of survived mice on the 40th day after the initiation of the test.

[2] = tested on: Platelet aggregation caused by PAF; test: Inhibition of PAF-induced platelet aggregation in rabbit PRP (Test Example 5); format: cell-based; settings: Oryctolagus cuniculus, PAF 1×10^-8 M, read-out: inhibition ratio (%) of PAF-induced platelet aggregation; for inhibition at 30 µM: 3 × 10^-5 M; for inhibition at 3 µM: 3 × 10^-6 M; for inhibition at 0.3 µM: 3 × 10^-7 M
Method: Blood was collected directly from a male rabbit, using a syringe containing 3.15% of citric acid (at a ratio of 1 part to 9 parts of blood) as an anticoagulant, and centrifuged at 800 rpm for 10 minutes at room temperature to obtain platelet rich plasma (PRP). The remaining blood was centrifuged further at 3000 rpm for 10 minutes to obtain platelet poor plasma (PPP) as the supernatant. By dilution of PRP with PPP, the platelet count was adjusted to about 500,000 cells/μl. After 250 μl of the resulting PRP was stirred at 37° C. for 2 minutes, a certain amount of the test compound was added, and the mixture was stirred for further 2 minutes, and then 1×10^-8 M of PAF was added. Platelet aggregation was measured by using a platelet aggregometer (manufactured by Rika Denki Co. in Japan). The aggregation-inhibiting activity of a test compound was determined from the inhibition ratio against maximal transmittance (maximal aggregation ratio) caused by PAF in the control PRP.

Sarcoma 180 cells [3] = test: Antitumor action, Sarcoma 180 intraperitoneal in ICR mice, life-span and survivors on 60th day (Test Example 6); format: in vivo; settings: Sarcoma-180, ip, 1440 h; for response vs control in vivo at 0.33 mg: read-out: Life-span prolongation ratio (T/C)
Method: (§2) Antitumor action of the compounds of Working Examples
as §1, with “inoculation.” for “inoculation. Reference compound IV, Va or Vb was given to mice under the same conditions.”, “Table 6” for “Table 1”, “the 60th” for “the 40th”

macrophages = settings: even at about 1000 times concentration of that of PAF; cited from earlier work
[4] = tested on: mouse mammary carcinoma cells MM46; test: Antitumor action, MM46 intraperitoneal in C3H mice, life-span and survivors on 60th day (Test Example 8); format: in vivo; settings: for Life-span prolongation ratio (T/C, %): mice found dead only
Excerpt: as §2
C3H mice (a group consisting of 5 mice) were inoculated intraperitoneally with 1×10^4 mouse mammary carcinoma cells MM46 per mouse, […] saline once a day for 4 consecutive days starting from the second day after inoculation. Shown in Table 8 are the life-span prolongation ratio against the untreated control group and the number of survived mice on the 60th day after initiation of the test.

Sarcoma 180 cells [5] = test: Antitumor action, Sarcoma 180 subcutaneous in ICR mice, oral dosing (Test Example 9); format: in vivo; settings: 0.3 mg/mouse orally eight times, after 20 days; for Inhibition ratio (%): against untreated control
Method: Antitumor action of the compounds of Working Examples 8 and 24
ICR mice (a group consisting of 5 mice) were inoculated subcutaneously at the dorsolateral area with […] 1×10^6 Sarcoma 180 cells per mouse, and given orally 0.3 mg/mouse of the compound of Example 8 or the compound of Example 24 eight times in total, i.e. 8th, 9th, 10th, 13th, 14th, 15th, 16th, and 17th day after inoculation. After 20 days the tumor tissue was extirpated and the tumor weight was weighed. Shown in Table 9 is tumor proliferation inhibition ratio against the untreated control.

[6] = tested on: mouse mammary carcinoma cells MM46; test: Antitumor action, MM46 intraperitoneal in C3H mice, life-span and survivors on 40th day (Test Example 3); format: in vivo; settings: 0.25 mg/mouse once a day for 4 days
Method: (§3) Antitumor action of the compound of Working Example 8
C3H mice (a group consisting of 5 mice) were inoculated intraperitoneally with 1×10^4 mouse mammary carcinoma cells MM46 per mouse, and given 0.25 mg/mouse of the compound of Working Example 8 dissolved in physiological saline once a day for 4 consecutive days starting from the second day after the inoculation. The Reference compound (IV) was given under the same conditions. Shown in Table 3 are the life-span prolongation ratio against the untreated control group and the number of survived mice on the 40th day after initiation of the test.

Sarcoma 180 cells [7] = test: Antitumor action, Sarcoma 180 subcutaneous in ICR mice, intravenous dosing, tumor proliferation inhibition (Test Example 2); format: in vivo; settings: tumor weight after 21 days
Method: as §3
ICR mice (a group consisting of 5 mice) were inoculated subcutaneously with 1×10^6 Sarcoma 180 cells per mouse, and given intravenously 0.03 mg/mouse or 0.3 mg/mouse of the compound of Working Example 8 dissolved in physiological saline 9 times in total, i.e. 8, 9, 10, 13, 14, 15, 16, 17, and 20 days after inoculation. The Reference compound (IV), 0.3 mg/mouse, was given under the same conditions. After 21 days, the tumor tissue was extirpated and the tumor weight was weighed. Shown in Table 2 is tumor proliferation inhibition ratio as compared with the untreated control group.

Sarcoma 180 cells [8] = test: Antitumor action, Sarcoma 180 subcutaneous in ICR mice, intravenous dosing, tumor proliferation inhibition (Test Example 7); format: in vivo; settings: 0.3 mg/mouse i.v. 9 times; tumor weight after 21 days
Method: as §2
ICR mice (a group consisting of 5 mice) were inoculated subcutaneously with 1×10^5 Sarcoma 180 cells per mouse, and given intravenously 0.3 mg/mouse of a compound of a Working Example dissolved in physiological saline 9 times in total, i.e. 8, 9, 10, 13, 14, 15, 16, 17, and 20 days after inoculation. After 21 days, the tumor tissue was extirpated and the tumor weight was weighed. Shown in Table 7 is tumor proliferation inhibition ratio as compared with the untreated control group.

[9] = 0.33 mg/mouse i.p. three times, 60th day, read-out: No. of survivors/No. of mice tested (converted)
[10] = 0.33 mg/mouse i.p. three times, survivors on day 60 not included
[11] = 0.25 mg/mouse once a day for 4 days
[12] = 0.125 mg/mouse once a day for 4 days

Molecule | No. of survivors/No. of mice tested (Sarcoma 180 cells [1]) | Life-span prolongation ratio (T/C, %) (Sarcoma 180 cells [1]) [%] | inhibition at 30 µM [2] [%] | inhibition at 3 µM [2] [%] | responders at 0.33 mg (Sarcoma 180 cells [3]; [9]) [%] | response vs control in vivo at 0.33 mg (Sarcoma 180 cells [3]; [10]) [%] | further results
CCCCCCCCCCCCCCCCCCOCC(COCCOCCOCC[N+](C)(C)C)OC (stereo not shown) [Example 9, 2-[2-[2-[2-Methoxy-3-(octadecyloxy)propyloxy]ethoxy]ethoxy]ethyltrimethylammonium chloride] | 1/5 | 247 | 100 | 66 | – | – | inhibition at 0.3 µM [2]: 3%
CCCCCCCCCCCCCCCCCCOCC(COCC[N+](C)(C)C)OC (stereo not shown) [Compound Va, reference compound] | 1/5 | 241 | 27 | 0 | – | – | inhibition at 0.3 µM [2]: 0%
CCCCCCCCCCCCCCCCCCOCC(COCCOCC[N+](C)(C)C)OCC(C)=O (stereo not shown) [Example 29, 2-[2-[3-(Octadecyloxy)-2-(2-oxopropyloxy)propyloxy]ethoxy]ethyltrimethylammonium chloride] | – | – | – | – | 60 | 220 | –
CCCCCCCCCCCCCCCCCCOCC(COCCOCC[N+](C)(C)C)OCC1CO1 (stereo not shown) [Example 47, 2-[2-[2-(2,3-Epoxypropyloxy)-3-(octadecyloxy)propyloxy]ethoxy]ethyltrimethylammonium chloride] | – | – | – | – | 20 | 237 | –
CCCCCCCCCCCCCCCCCCOCC(COCCOCCOCC[N+](C)(C)C)OC(=O)CC(C)=O (stereo not shown) [Example 15, 2-[2-[2-[2-(Acetoacetyloxy)-3-(octadecyloxy)propyloxy]ethoxy]ethoxy]ethyltrimethylammonium chloride] | 4/5 | 291 | 100 | 43 | – | – | –
COC(COCCCCCCCCCCCC(F)(F)C(F)(F)C(F)(F)C(F)(F)C(F)(F)C(F)(F)C(F)(F)C(F)(F)F)COCCOCC[N+](C)(C)C (stereo not shown) [Example 51, 2-[2-[2-Methoxy-3-(12,12,13,13,14,14,15,15,16,16, 17,17,18,18,19,19,19-heptadecafluorononadecyloxy)propyloxy)ethoxy]ethyltrimethylammonium chloride] | – | – | – | – | – | – | response vs control in vivo at 0.33 mg (Sarcoma 180 cells [3]; Mus musculus): 295%; responders at 0.33 mg (Sarcoma 180 cells [3]; Mus musculus, read-out: No. of survivors/No. of mice tested): 0%
lysolecithin | – | – | – | – | – | – | macrophage activation (macrophages): cannot activate macrophages
CCCCCCCCCCCCCCCCCCOCC(COCCOCC[N+](C)(C)C)OC(=O)CC(C)=O.[Cl-] (stereo not shown) [Example 12, 2-[2-[2-(Acetoacetyloxy)-3-(octadecyloxy)propyloxy]ethoxy]ethyltrimethylammonium chloride] | – | – | – | – | 40 | 292 | No. of survivors/No. of mice tested [4, 11]: 3/5; Life-span prolongation ratio (T/C, %) [4, 11]: 126%; No. of survivors/No. of mice tested ([4]; 0.5 mg/mouse once a day for 4 days): 5/5
COC(COCCOCC[N+](C)(C)C)COCCC(C)CCCC(C)CCCC(C)CCCC(C)C (stereo not shown) [Example 59, 2-[2-[2-Methoxy-3-(3,7,11,15-tetramethylhexadecyloxy)propyloxy]ethoxy]ethyltrimethylammonium chloride] | – | – | – | – | 0 | 224 | –
CNC(=S)OC(COCCCCCCCCCCCCC1CCCCC1)COCCOCC[N+](C)(C)C (stereo not shown) [Example 43, 2-[2-[3-(12-Cyclohexyl)dodecyloxy-2-N-methylthiocarbamoyloxypropyloxy]ethoxy]ethyltrimethylammonium chloride] | – | – | – | – | 20 | 323 | –
C[N+](C)(C)CCOCCOCC(COCCCCCCCCCCCCC1CCCCC1)OCC(=O)[O-] (stereo not shown) [Example 66, 3-(12-Cyclohexyldodecyloxy)methyl-10-trimethylammonio-2,5,8-trioxadecane carboxylate] | – | – | – | – | 0 | 235 | –
CCCCCCCCCCCCCCCCCCOCC(COCCOCC[N+](C)(C)C)OC (stereo not shown) [Example 8, 2-[2-[2-Methoxy-3-(octadecyloxy)propyloxy]ethoxy]ethyltrimethylammonium chloride] | 5/5 | – | 100 | 38 | – | – | Weight of tumor (Sarcoma 180 cells [5]): 0.35 ± 0.04 g; Inhibition ratio (%) (Sarcoma 180 cells [5]): 75%; inhibition at 0.3 µM [2]: 18%; No. of survivors/No. of mice tested [6]: 5/5; Inhibition ratio (1-T/C) (%) (Sarcoma 180 cells [7]; 0.03 mg/mouse i.v. 9 times): 65%; Inhibition ratio (1-T/C) (%) (Sarcoma 180 cells [7]; 0.3 mg/mouse i.v. 9 times): 65%; No. of survivors/No. of mice tested [4, 12]: 2/5; Life-span prolongation ratio (T/C, %) [4, 12]: 144%; No. of survivors/No. of mice tested [4, 11]: 3/5; Life-span prolongation ratio (T/C, %) [4, 11]: 315%
CC(=O)CC(=O)OC(COCCCCCCCCCCCCC1CCCCC1)COCCOCC[N+](C)(C)C (stereo not shown) [Example 26, 2-[2-[2-Acetoacetyloxy-3-(12-cyclohexyl)dodecyloxypropyloxy]ethoxy]ethyltrimethylammonium chloride] | – | – | – | – | 0 | 295 | Inhibition ratio (1-T/C) (%) (Sarcoma 180 cells [8]): 60%
CCCCCCCCCCCCCCCCCCOCC(COCCCC[N+](C)(C)C)OC (stereo not shown) [Compound Vb, reference compound] | 0/5 | 291 | 97 | 5 | – | – | inhibition at 0.3 µM [2]: 0%
COC(COCCCCCCCCCCCCC1CCCCC1)COCCOCC[N+](C)(C)C (stereo not shown) [Example 24, 2-[2-[3-(12-Cyclohexyl)dodecyloxy-2-methoxypropyloxy]ethoxy]ethyltrimethylammonium chloride] | 3/5 | 262 | 100 | 63 | 0 | 302 | Inhibition ratio (1-T/C) (%) (Sarcoma 180 cells [8]): 78%; Weight of tumor (Sarcoma 180 cells [5]): 0.35 ± 0.15 g; Inhibition ratio (%) (Sarcoma 180 cells [5]): 75%
CCCCCCCCCCCCCCCCCCOCC(COCCOCC[N+](C)(C)C)OC(=S)NC (stereo not shown) [Example 42, 2-[2-[2-(Methylthiocarbamoyloxy)-3-(octadecyloxy)propyloxy]ethoxy]ethyltrimethylammonium chloride] | – | – | – | – | 0 | 340 | –

From patent publication US4889953A, “Glycerol derivatives, their production and use” (Takeda Chemical Industries, Ltd., priority 1986, dated 1989)
